Common to all, as to experiment: relative viability (nuclei count vs DMSO), 5 days (fraction); higher = more cells survive
Compound in assay [1]: COc1cc(-c2nn([C@H]3CC[C@H](N4CCN(C(C)=O)CC4)CC3)c3ncnc(N)c23)ccc1NC(=O)c1cc2ccccc2n1C + C[C@]1(O)C[C@@H](c2nc(-c3ccc4ccc(-c5ccccc5)nc4c3)c3c(N)nccn32)C1 [Linsitinib] (partner 1 µM)
An outline of the steps: (§1)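 Lung cancer cell lines were seeded in 1536-well plates and dosed by pin tool the next day, with either a single drug or a fixed anchor-drug dose combined with five library-drug doses (not always all listed) spaced in √10 steps. Five days later, one step fixed the cells and stained their nuclei (final 0.05% Triton X-100, 1% formaldehyde, 1 ug/ml Hoechst), and nuclei were counted on 4× images. Relative viability is the nuclei count in treated wells divided by the count in vehicle wells, and each value is the median of duplicate plates.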

Compound in the assay “Midostaurin + Tozasertib”: CO[C@@H]1[C@H](N(C)C(=O)c2ccccc2)C[C@H]2O[C@]1(C)n1c3ccccc3c3c4c(c5c6ccccc6n2c5c31)C(=O)NC4 [Midostaurin] + Cc1cc(Nc2cc(N3CCN(C)CC3)nc(Sc3ccc(NC(=O)C4CC4)cc3)n2)n[nH]1 [Tozasertib] (partner 0.1 µM)
An outline of the steps:
as §1

Compound in the assay “Midostaurin + Crizotinib”: CO[C@@H]1[C@H](N(C)C(=O)c2ccccc2)C[C@H]2O[C@]1(C)n1c3ccccc3c3c4c(c5c6ccccc6n2c5c31)C(=O)NC4 [Midostaurin] + C[C@@H](Oc1cc(-c2cnn(C3CCNCC3)c2)cnc1N)c1c(Cl)ccc(F)c1Cl [Crizotinib] (partner 1 µM)
The method in brief:
as §1

Compound in assay [2]: COc1cc(-c2nn([C@H]3CC[C@H](N4CCN(C(C)=O)CC4)CC3)c3ncnc(N)c23)ccc1NC(=O)c1cc2ccccc2n1C + CC(C)C[C@H](NC(=O)[C@H](Cc1ccccc1)NC(=O)c1cnccn1)B(O)O [Bortezomib] (partner 0.002 µM)
The method in brief: as §1

Compound in assay [3]: COc1cc(-c2nn([C@H]3CC[C@H](N4CCN(C(C)=O)CC4)CC3)c3ncnc(N)c23)ccc1NC(=O)c1cc2ccccc2n1C + COc1cc2c(Oc3ccc(NC(=O)C4(C(=O)Nc5ccc(F)cc5)CC4)cc3F)ccnc2cc1OCCCN1CCOCC1 [Foretinib] (partner 0.25 µM)
The method in brief: as §1

On to NCI-H2087, for which the relative viability in assay [1] (first compound 0.0128 µM) worked out at 1.1; in assay [1] (first compound 0.04048 µM) it was 0.875; in assay [1] (first compound 0.128 µM), 1.12; in assay [1] (first compound 1.28 µM), 1.11; in the assay with Midostaurin + Tozasertib (first compound 0.01 µM) it was 0.249; with Midostaurin + Tozasertib (first compound 0.03162 µM) it was 0.303. Besides, the relative viability with Midostaurin + Tozasertib (first compound 0.1 µM) was 0.225; with Midostaurin + Tozasertib (first compound 0.3162 µM), 0.207; with Midostaurin + Crizotinib (first compound 0.01 µM), 0.794; with Midostaurin + Crizotinib (first compound 0.03162 µM), 0.655; in the assay with Midostaurin + Crizotinib (first compound 0.1 µM) it was 0.835; in the assay with Midostaurin + Crizotinib (first compound 0.3162 µM), 0.656. For the same cell line, the relative viability in assay [2] (first compound 0.0128 µM) turned out to be 0.855; in assay [2] (first compound 0.04048 µM), 0.772; in assay [2] (first compound 0.128 µM) it was 0.869; in assay [2] (first compound 1.28 µM) it was 0.991; in assay [3] (first compound 0.0128 µM), 1.25; in assay [3] (first compound 0.128 µM), 1.11. Also, the relative viability in assay [3] (first compound 1.28 µM) is 0.948.
NCI-H2126: the relative viability was found to be 0.825 in assay [1] (first compound 0.0128 µM); 0.765 in assay [1] (first compound 0.04048 µM); 0.701 in assay [1] (first compound 0.128 µM); 0.537 in assay [1] (first compound 1.28 µM); 0.861 in the assay with Midostaurin + Tozasertib (first compound 0.01 µM); 0.8 with Midostaurin + Tozasertib (first compound 0.03162 µM). In addition, the relative viability with Midostaurin + Tozasertib (first compound 0.1 µM) is 0.844; in the assay with Midostaurin + Tozasertib (first compound 0.3162 µM) it was 0.857; with Midostaurin + Crizotinib (first compound 0.01 µM), 1.02; with Midostaurin + Crizotinib (first compound 0.03162 µM) it was 0.951; with Midostaurin + Crizotinib (first compound 0.1 µM) it was 0.965; in the assay with Midostaurin + Crizotinib (first compound 0.3162 µM), 1.04. The relative viability in assay [2] (first compound 0.0128 µM) was 1.17; in assay [2] (first compound 0.04048 µM), 1.17; in assay [2] (first compound 0.128 µM), 1.06; in assay [2] (first compound 1.28 µM), 1.03; in assay [3] (first compound 0.0128 µM), 1.34; in assay [3] (first compound 0.04048 µM), 1. Also, the relative viability in assay [3] (first compound 0.128 µM) was determined as 1.11; in assay [3] (first compound 1.28 µM) it was 0.983.
For the cell line NCI-H2228, the relative viability in assay [1] (first compound 0.0128 µM) amounted to 0.54; in assay [1] (first compound 0.04048 µM), 0.883; in assay [1] (first compound 0.128 µM) it was 0.649; in assay [1] (first compound 1.28 µM), 0.643; with Midostaurin + Tozasertib (first compound 0.01 µM), 0.254; in the assay with Midostaurin + Tozasertib (first compound 0.03162 µM) it was 0.284. Moreover, the relative viability worked out at 0.265 with Midostaurin + Tozasertib (first compound 0.1 µM); 0.216 with Midostaurin + Tozasertib (first compound 0.3162 µM); 0.662 in the assay with Midostaurin + Crizotinib (first compound 0.01 µM); 0.434 in the assay with Midostaurin + Crizotinib (first compound 0.03162 µM); 0.361 with Midostaurin + Crizotinib (first compound 0.1 µM); 0.509 with Midostaurin + Crizotinib (first compound 0.3162 µM). Besides, the relative viability in assay [2] (first compound 0.0128 µM) was found to be 0.945; in assay [2] (first compound 0.04048 µM), 1.08; in assay [2] (first compound 0.128 µM), 0.804; in assay [2] (first compound 1.28 µM), 0.559; in assay [3] (first compound 0.0128 µM), 0.92; in assay [3] (first compound 0.04048 µM), 1.05. The relative viability in assay [3] (first compound 0.128 µM) came to 0.825; in assay [3] (first compound 1.28 µM), 0.622.
Consider NCI-H2347, for which the relative viability was 0.949 in assay [1] (first compound 0.0128 µM); 0.856 in assay [1] (first compound 0.04048 µM); 0.961 in assay [1] (first compound 0.128 µM); 1.09 in assay [1] (first compound 1.28 µM); 0.494 with Midostaurin + Tozasertib (first compound 0.01 µM); 0.553 in the assay with Midostaurin + Tozasertib (first compound 0.03162 µM). The relative viability was 0.616 in the assay with Midostaurin + Tozasertib (first compound 0.1 µM); 0.506 in the assay with Midostaurin + Tozasertib (first compound 0.3162 µM); 0.678 with Midostaurin + Crizotinib (first compound 0.01 µM); 0.684 with Midostaurin + Crizotinib (first compound 0.03162 µM); 0.802 in the assay with Midostaurin + Crizotinib (first compound 0.1 µM); 0.808 with Midostaurin + Crizotinib (first compound 0.3162 µM). In addition, the relative viability in assay [2] (first compound 0.0128 µM) came out at 0.82; in assay [2] (first compound 0.04048 µM), 1.07; in assay [2] (first compound 0.128 µM), 1.15; in assay [2] (first compound 1.28 µM), 0.697; in assay [3] (first compound 0.0128 µM) it was 0.788; in assay [3] (first compound 0.04048 µM) it was 0.781. The relative viability was determined as 0.864 in assay [3] (first compound 0.128 µM) and 0.834 in assay [3] (first compound 1.28 µM).
NCI-H2405: the relative viability in assay [1] (first compound 0.0128 µM) is 0.886; in assay [1] (first compound 0.04048 µM), 0.541; in assay [1] (first compound 0.128 µM), 0.721; in assay [1] (first compound 1.28 µM), 0.326; in the assay with Midostaurin + Tozasertib (first compound 0.01 µM) it was 0.752; with Midostaurin + Tozasertib (first compound 0.03162 µM), 0.677. The relative viability with Midostaurin + Tozasertib (first compound 0.1 µM) was found to be 0.742; with Midostaurin + Tozasertib (first compound 0.3162 µM) it was 0.585; with Midostaurin + Crizotinib (first compound 0.01 µM), 0.787; in the assay with Midostaurin + Crizotinib (first compound 0.03162 µM) it was 0.825; in the assay with Midostaurin + Crizotinib (first compound 0.1 µM), 0.797; with Midostaurin + Crizotinib (first compound 0.3162 µM), 0.842. Moreover, the relative viability is 0.939 in assay [2] (first compound 0.0128 µM); 0.936 in assay [2] (first compound 0.128 µM); 0.668 in assay [2] (first compound 1.28 µM); 1.09 in assay [3] (first compound 0.0128 µM); 0.855 in assay [3] (first compound 0.04048 µM); 1.04 in assay [3] (first compound 0.128 µM). The relative viability in assay [3] (first compound 1.28 µM) turned out to be 0.535.
As to NCI-H3122, the relative viability was 1.1 in assay [1] (first compound 0.0128 µM); 1 in assay [1] (first compound 0.128 µM); 0.875 in assay [1] (first compound 1.28 µM); 0.365 in the assay with Midostaurin + Tozasertib (first compound 0.01 µM); 0.283 in the assay with Midostaurin + Tozasertib (first compound 0.03162 µM); 0.386 with Midostaurin + Tozasertib (first compound 0.1 µM). In addition, the relative viability was found to be 0.336 in the assay with Midostaurin + Tozasertib (first compound 0.3162 µM); 0.286 with Midostaurin + Crizotinib (first compound 0.01 µM); 0.258 in the assay with Midostaurin + Crizotinib (first compound 0.03162 µM); 0.3 in the assay with Midostaurin + Crizotinib (first compound 0.1 µM); 0.331 with Midostaurin + Crizotinib (first compound 0.3162 µM); 1.14 in assay [2] (first compound 0.0128 µM). Also, the relative viability in assay [2] (first compound 0.128 µM) turned out to be 1.01; in assay [2] (first compound 1.28 µM) it was 0.788; in assay [3] (first compound 0.0128 µM), 1.02; in assay [3] (first compound 0.128 µM) it was 0.877; in assay [3] (first compound 1.28 µM), 0.777.

(Values after the supplement of paper PMC10307832.)
